Reference: patent US12403128B2, “Compositions and methods for blocking sodium channels” (University of Virginia Patent Foundation, priority 2017, dated 2025)
Read-outs that look alike come from different tables or passages of the source.

Assays:
[1] = tested on: Metrazol-induced clonic seizures; assay: scM (subcutaneous Metrazol) test, mice; format: in vivo
Experimental: (§1) Evaluation of Compounds in scM Models of Seizures. Subcutaneous injection of the convulsant Metrazol produces clonic seizures in laboratory animals. […] Animals may be pretreated with various doses of the test compound given by ip injection. At a previously determined TPE (time to peak) of the test compound, the dose of Metrazol which will induce convulsions in 97% of animals (CD97:85 mg/kg mice) may be injected into a loose fold of skin in the midline of the neck. The animals may be placed in isolation cages to minimize stress and observed for the next 30 min for the presence or absence of a seizure. An episode of clonic spasms, approximately 3-5 seconds, of the fore and/or hindlimbs, jaws, or vibrissae may be taken as the endpoint. […] The scM test represents acute animal seizures.

[2] = target: NaV1.6 sodium channels (Homo sapiens, UniProt Q9UQD0); assay: State-dependent inhibition: steady state inactivation, use-dependent block; format: cell-based
Chain of NaV1.6 sodium channels (Q9UQD0 whole entry): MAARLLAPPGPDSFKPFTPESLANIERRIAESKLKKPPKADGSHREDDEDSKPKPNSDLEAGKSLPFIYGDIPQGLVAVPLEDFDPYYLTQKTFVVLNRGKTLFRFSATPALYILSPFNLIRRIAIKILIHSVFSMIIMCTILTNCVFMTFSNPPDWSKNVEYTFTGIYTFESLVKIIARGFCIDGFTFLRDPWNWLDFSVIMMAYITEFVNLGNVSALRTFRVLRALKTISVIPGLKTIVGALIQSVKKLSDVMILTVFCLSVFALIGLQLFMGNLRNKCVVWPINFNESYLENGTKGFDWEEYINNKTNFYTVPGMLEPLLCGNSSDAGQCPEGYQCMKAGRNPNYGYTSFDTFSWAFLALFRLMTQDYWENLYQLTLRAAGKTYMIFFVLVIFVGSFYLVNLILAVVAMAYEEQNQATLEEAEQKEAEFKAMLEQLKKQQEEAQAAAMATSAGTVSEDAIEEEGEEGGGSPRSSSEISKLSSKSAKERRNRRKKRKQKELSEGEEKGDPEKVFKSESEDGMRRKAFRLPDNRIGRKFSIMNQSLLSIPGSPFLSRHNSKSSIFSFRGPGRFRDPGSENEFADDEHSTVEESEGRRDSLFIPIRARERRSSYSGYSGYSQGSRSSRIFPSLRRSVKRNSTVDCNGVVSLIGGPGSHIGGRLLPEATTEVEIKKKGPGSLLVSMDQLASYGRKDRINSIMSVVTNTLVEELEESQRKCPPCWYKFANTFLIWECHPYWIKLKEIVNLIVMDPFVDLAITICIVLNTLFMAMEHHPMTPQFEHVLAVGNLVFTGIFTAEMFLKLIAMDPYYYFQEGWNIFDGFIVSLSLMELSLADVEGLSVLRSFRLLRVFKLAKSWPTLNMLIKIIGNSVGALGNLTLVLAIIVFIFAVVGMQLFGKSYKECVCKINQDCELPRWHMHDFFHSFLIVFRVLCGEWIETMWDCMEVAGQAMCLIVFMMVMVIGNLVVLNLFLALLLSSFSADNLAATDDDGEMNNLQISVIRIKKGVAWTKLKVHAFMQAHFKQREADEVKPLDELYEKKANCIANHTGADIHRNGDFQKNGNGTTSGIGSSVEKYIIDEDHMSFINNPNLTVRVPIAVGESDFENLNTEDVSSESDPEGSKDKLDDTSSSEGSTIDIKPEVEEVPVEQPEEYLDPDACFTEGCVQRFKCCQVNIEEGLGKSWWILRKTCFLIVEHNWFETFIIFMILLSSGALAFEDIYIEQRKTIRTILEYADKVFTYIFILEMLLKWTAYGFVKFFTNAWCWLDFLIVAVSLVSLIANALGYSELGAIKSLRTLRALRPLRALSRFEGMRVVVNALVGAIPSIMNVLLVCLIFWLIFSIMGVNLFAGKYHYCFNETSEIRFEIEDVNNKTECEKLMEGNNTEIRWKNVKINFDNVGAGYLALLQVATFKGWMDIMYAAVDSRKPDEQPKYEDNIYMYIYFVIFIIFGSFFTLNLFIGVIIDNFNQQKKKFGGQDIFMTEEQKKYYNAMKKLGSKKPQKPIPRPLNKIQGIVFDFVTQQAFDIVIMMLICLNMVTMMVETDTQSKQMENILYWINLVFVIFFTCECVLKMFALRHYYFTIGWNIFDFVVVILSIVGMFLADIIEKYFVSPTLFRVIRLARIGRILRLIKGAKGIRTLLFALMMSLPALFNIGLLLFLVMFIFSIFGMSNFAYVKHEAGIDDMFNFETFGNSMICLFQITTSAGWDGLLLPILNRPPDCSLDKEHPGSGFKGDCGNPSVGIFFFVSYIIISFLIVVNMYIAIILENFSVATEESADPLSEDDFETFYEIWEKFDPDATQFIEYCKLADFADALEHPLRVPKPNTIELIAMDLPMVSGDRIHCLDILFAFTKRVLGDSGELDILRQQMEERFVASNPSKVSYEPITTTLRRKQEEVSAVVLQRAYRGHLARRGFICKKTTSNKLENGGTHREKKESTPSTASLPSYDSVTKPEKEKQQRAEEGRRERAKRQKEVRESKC
Excerpt: Evaluation of Compounds as State-Dependent Inhibitors
Use dependent block is an important characteristic for AED activity since it allows increased inhibition of sodium channels during increased neuronal activity as is observed during seizures.

[3] = tested on: rats; assay: Behavioral toxicity (TOX, TD50), rats; format: in vivo; settings: IP, 30 mg/kg
[4] = Behavioral toxicity (TOX, TD50), rats; format: in vivo; settings: rat, in vivo, IP, Table 15, read-out: TOX TD50
[5] = tested on: 6 Hz psychomotor seizures; assay: 6 Hz psychomotor seizure test, mice; format: in vivo; settings: for 6 Hz N/F (animals active over number tested): 100 mg/kg; for ED50: Mus musculus
Experimental: Evaluation of Compounds in 6 Hz Pyschomotor Seizure Test
Compounds were tested using a 6 Hz psychomotor seizure test. […] For example, both the MES and scM models are insensitive to levetiracetam, a compound considered potentially useful in the management of refractory seizures. […] Thus, the 6 Hz test can serve as a therapy resistant screening paradigm of acute seizure activity.

[6] = tested on: mice; settings: mouse, in vivo, ip, 100 mg/kg
[7] = tested on: Metrazol-induced clonic seizures; assay: scM (subcutaneous Metrazol) test, rats; format: in vivo
Experimental: as §1

[8] = in vivo; settings: mouse, ip
[9] = tested on: maximal electroshock (MES) seizures; assay: MES (maximal electroshock) test, mice; format: in vivo; settings: for MES N/F (animals active over number tested): 100 mg/kg
Excerpt: Evaluation of Compounds in MES Models of Seizures. […] These seizures are highly reproducible and are electrophysiologically consistent with human seizures. […] Abolition of the hindleg tonic extensor component of the seizure was used as the endpoint.

[10] = tested on: corneal kindled mice seizures; assay: Corneal kindled mice model; format: in vivo; settings: for Avg. Score / N/F (animals active over number tested): TPE 0.5 hours
Experimental: Evaluation of Compounds in Corneal Kindled Mice Model.
Corneal kindled mice are kindled electrically via 3 second stimulation at 8 mA, 60 Hz through corneal electrodes to produce 10 consecutive stage […] seizures according to the Racine scale. Animals are defined as kindled once they progress to a reproducible stage 5 seizure. 72 hours after the mice have been kindled the test substance is administered and, according to a previously determined TPE (time to peak), the animals are electrically stimulated. The animals are considered protected when displaying a stage 3, or lower, seizure.

[11] = tested on: maximal electroshock (MES) seizures; assay: MES (maximal electroshock) test, rats; format: in vivo; settings: for MES N/F (animals active over number tested): 30 mg/kg
Excerpt: Evaluation of Compounds in MES Models of Seizures. The MES is a model for generalized tonic-clonic seizures and provides an indication of a compound's ability to prevent seizure spread when all neuronal circuits in the brain are maximally active. These seizures are highly reproducible and are electrophysiologically consistent with human seizures. […] Abolition of the hindleg tonic extensor component of the seizure was used as the endpoint.

[12] = target: Nav1.6 (Homo sapiens, UniProt Q9UQD0); assay: % block of Nav1.6 at 100 μM and IC50 (NaV1.6); format: cell-based
Chain of Nav1.6 (Q9UQD0 whole entry): as above
In short: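 Nav1.6 block recorded as percent inhibition at 100 μM compound; IC50 also reported.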

Clc1ccc2nc(-c3ccccc3)[nH]c2c1 [MV1066, 6-chloro-2-phenyl-1H-1,3-benzodiazole]
ED50 ([1]; Mus musculus, mice, IP, Table 14, read-out: sCM ED50): 180 mg/kg
ED50 ([1]; sc, Mouse, time 0.5 hrs, read-out: ED50 from scM test): 181 mg/kg
effect on current amplitude and activation gating ([2]; 100 μM, 1 second pre-pulse): inhibits macroscopic current amplitude but has no effect on activation gating
use-dependent block ([2]; 20 Hz): profound use-dependent block
affinity by holding potential (dose response) ([2]; cells held at −100 mV or −60 mV, stepped to +10 mV): greater affinity for cells held at −60 mV
TOX N/F (animals toxic over number tested) ([3]; 0.25 h): 0/4
TOX N/F (animals toxic over number tested) ([3]; 0.5 h): 0/4
TOX N/F (animals toxic over number tested) ([3]; 1.0 h): 0/4
TOX N/F (animals toxic over number tested) ([3]; 2.0 h): 0/4
TOX N/F (animals toxic over number tested) ([3]; 4.0 h): 0/4
TD50 [4]: > 500 mg/kg
6 Hz N/F (animals active over number tested) ([5]; IP, 32 mA, 0.25 h): 4/4
6 Hz N/F (animals active over number tested) ([5]; IP, 32 mA, 0.5 h): 4/4
6 Hz N/F (animals active over number tested) ([5]; IP, 32 mA, 1.0 h): 3/4
6 Hz N/F (animals active over number tested) ([5]; IP, 32 mA, 2.0 h): 2/4
6 Hz N/F (animals active over number tested) ([5]; IP, 32 mA, 4.0 h): 0/4
6 Hz N/F (animals active over number tested) ([5]; IP, 44 mA, 0.25 h): 2/4
6 Hz N/F (animals active over number tested) ([5]; IP, 44 mA, 0.5 h): 2/4
6 Hz N/F (animals active over number tested) ([5]; IP, 44 mA, 1.0 h): 2/4
6 Hz N/F (animals active over number tested) ([5]; IP, 44 mA, 2.0 h): 0/4
6 Hz N/F (animals active over number tested) ([5]; IP, 44 mA, 4.0 h): 0/4
ED50 ([5]; 32 mA, read-out: ED50 (6 Hz test)): 67.1 mg/kg
ED50 ([5]; IP, 32 mA, Table 14, read-out: 6 Hz (32 mA) ED50): 67.1 mg/kg
ED50 ([5]; IP, (14 mA) [sic], Table 14, read-out: 6 Hz (14 mA) ED50): 72.4 mg/kg
TOX N/F (animals toxic over number tested) ([6]; 0.5 h): 0/4
TOX N/F (animals toxic over number tested) ([6]; 1 h): 0/4
TOX N/F (animals toxic over number tested) ([6]; 2 h): 0/4
TOX N/F (animals toxic over number tested) ([6]; 4 h): 0/4
ED50 ([7]; Rattus norvegicus, rats, IP, Table 15, read-out: sCM ED50): 96.9 mg/kg
ED50 ([7]; sc, Rat, time 0.5 hrs, read-out: ED50 from scM test): 97 mg/kg
TD50 [8]: 383 mg/kg
ED50 ([9]; Mouse, time 0.5 hrs, read-out: ED50 from MES test): 44.2 mg/kg
ED50 ([9]; Mus musculus, mice, IP, Table 14, read-out: MES ED50): 44.2 mg/kg
MES N/F (animals active over number tested) ([9]; mice, IP, 0.25 h): 4/4
MES N/F (animals active over number tested) ([9]; mice, IP, 0.5 h): 4/4
MES N/F (animals active over number tested) ([9]; mice, IP, 1.0 h): 4/4
MES N/F (animals active over number tested) ([9]; mice, IP, 2.0 h): 4/4
MES N/F (animals active over number tested) ([9]; mice, IP, 4.0 h): 4/4
Avg. Score ([10]; 35 mg/kg): 4.75
N/F (animals active over number tested) ([10]; 35 mg/kg): 1/8
Avg. Score ([10]; 72 mg/kg): 3.125
N/F (animals active over number tested) ([10]; 72 mg/kg): 5/8
Avg. Score ([10]; 90 mg/kg): 2.75
N/F (animals active over number tested) ([10]; 90 mg/kg): 5/8
Avg. Score ([10]; 120 mg/kg): 0.375
N/F (animals active over number tested) ([10]; 120 mg/kg): 8/8
ED50 ([10]; Mus musculus): 64.1 mg/kg
ED50 ([11]; Rat, time 0.5 hrs, read-out: ED50 from MES test): 25.1 mg/kg
ED50 ([11]; Rattus norvegicus, rats, IP, Table 15, read-out: MES ED50): 25.1 mg/kg
MES N/F (animals active over number tested) ([11]; rats, IP, 0.25 h): 2/4
MES N/F (animals active over number tested) ([11]; rats, IP, 0.5 h): 4/4
MES N/F (animals active over number tested) ([11]; rats, IP, 1.0 h): 4/4
MES N/F (animals active over number tested) ([11]; rats, IP, 2.0 h): 3/4
MES N/F (animals active over number tested) ([11]; rats, IP, 4.0 h): 4/4
inhibition at 100 µM ([12]; 100 μM compound): 95%
IC50 ([12]; NaV1.6, Table 2, MV1060-MV1091, unit inferred, read-out: IC50): 34.6 µM
